Results on 13 compounds are retold here after PubChem BioAssay (NCI).

Experiment in all cases: DTP human tumour cell line panel, 48 h
The test system of test [1] is A498 renal.
The test system of test [2] is IGROV1 ovarian.
For test [3], the system named is MDA-MB-435.
Test [4] deals with OVCAR-5 ovarian.
Test [5] concerns OVCAR-8 ovarian.
In test [6] the test system is PC-3 prostate.
The subject of test [7] is SK-MEL-5 melanoma.
Test [8] relates to TK-10 renal.
Test [9] relates to UO-31 renal.
The test system of test [10] is SR leukemia.

What is called GI50 is the concentration that inhibits growth by half. For orientation: TGI means the concentration at which net growth stops. Lower therefore signals greater sensitivity of the cells.

Each structure is given as a SMILES string.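 Dose response: 5 concentrations. Exposure: 48 h. Format: 96-well plates. Endpoint: linear interpolation; highest concentration if not reached. Here, GI50 denotes the concentration required for 50% inhibition of growth. TGI is the concentration that stops growth completely.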 Some results are limits rather than exact numbers.

Turning to `Clc1ccc(CNc2nccc(-c3cnn4ncccc34)n2)cc1`, the GI50 in test [1] was 5.07 µM; in test [2], 6.72 µM; in test [3], 6.3 µM; in test [4] it was 7.66 µM; in [5], 6.63 µM; in [6], 6.76 µM. Also, the figures for the GI50 in [7], in test [8] and in test [9] were 5.4 µM, 8.71 µM and 6.75 µM, respectively. Also, the TGI is 10.4 µM in test [1]; above 23.3 µM in test [2]; 20.6 µM in [3]; 24.7 µM in test [4]; above 25 µM in test [5]; above 24 µM in test [6]. Further, the concentration for total growth inhibition (TGI) in test [7] is above 25 µM; in [8], above 23.5 µM; in [9] it was above 19.5 µM.
With `NS(=O)(=O)c1ccc(-n2ncc3c(Nc4ccccc4)ncnc32)cc1`, the GI50 in test [1] is 24.3 µM; in [3], 46.2 µM; in [4], 34.9 µM; in test [5], 18.3 µM; in [6], 35.1 µM; in test [7] it was 24.4 µM. Moreover, the GI50 in [10] is 29.6 µM; in test [8] it was 19.1 µM; in [9] it was 23.9 µM. Besides, the concentration for total growth inhibition (TGI) in [1] was 92.7 µM; in test [3] it was above 100 µM; in test [4] it was above 100 µM; in test [5], 65 µM; in [6], above 100 µM; in [7], above 100 µM. In addition, the TGI in test [10], in test [8] and in test [9] was above 100 µM in each case.
Regarding `CNC1=C(C(=O)OC)SC(c2ccccc2)(c2ccccc2)SC1`, the GI50 is 11.4 µM in test [1]; 3.15 µM in [3]; above 100 µM in [4]; 24.9 µM in test [5]; 15.3 µM in test [6]; 19.5 µM in test [7]. For the same compound, the GI50 in test [10] is 2.4 µM; in test [8], 25.3 µM; in test [9], above 100 µM. In addition, the TGI in test [1] is 85.3 µM; in test [3], 10.9 µM; in [4] it was above 100 µM; in test [5], above 100 µM; in [6], above 100 µM; in test [7] it was above 100 µM. Further, the total growth inhibition concentration (TGI) in [10] is 7.93 µM; in test [8] it was above 100 µM; in test [9], above 100 µM.
Take `COc1cccc(N=N/C(=N\NC(=O)c2cc(Br)ccc2O)c2ccc(N(CCC#N)CCC#N)cc2OC)c1`: the GI50 in [1] was 150 µg/mL; in test [2], 53.7 µg/mL; in [3] it was 67.8 µg/mL; in test [4], 79.2 µg/mL; in test [5] it was 41.6 µg/mL; in [6], 49.5 µg/mL. For the same compound, the GI50 was 35.1 µg/mL in test [7], 71.4 µg/mL in test [10] and 68 µg/mL in test [9]. The TGI in [1], in test [2], in test [3], in [4], in test [5] and in [6] was above 150 µg/mL each time. The concentration for total growth inhibition (TGI) in test [7] was 97.1 µg/mL; in test [10], above 150 µg/mL; in [9] it was above 150 µg/mL.
As to `COc1ccc(-c2ccc(-c3ccc(C(=N)N)cn3)o2)cc1Cl`, the GI50 was 2.05 µM in [1]; 1.86 µM in [2]; 1.74 µM in test [3]; 1.74 µM in test [4]; 1.32 µM in test [6]; 1.6 µM in test [7]. Moreover, the GI50 was 3.19 µM in [8] and 1.43 µM in [9]. The TGI turned out to be 5.57 µM in test [1]; 3.63 µM in test [2]; 3.33 µM in test [3]; 3.38 µM in [4]; 2.68 µM in [6]; 2.97 µM in test [7]. For the same compound, the concentration for total growth inhibition (TGI) in test [8] turned out to be 9.47 µM; in test [9] it was 2.76 µM.
`COc1cc2c3c(n(CCCBr)c(=O)c2cc1OC)-c1ccc(F)cc1C3=O`: the GI50 in test [1] was 14.8 µM; in test [3], 43.9 µM; in [4], 50 µM; in test [5] it was 26.4 µM; in [6], 45.8 µM; in test [7], 10.9 µM. Further, the values for the GI50 in test [10], in [8] and in test [9] were 0.28 µM, 32.7 µM and 5.57 µM, respectively. The total growth inhibition concentration (TGI) in test [1] was 40.9 µM; in test [3], above 100 µM; in [4], above 100 µM; in test [5], above 100 µM; in test [6], above 100 µM; in test [7] it was 24.1 µM. The values for the TGI in test [10], in [8] and in [9] were 1.73 µM, above 100 µM and 60.4 µM, respectively.
`O=C(COc1cccc(/C=C2\Oc3ccc4ccccc4c3C2=O)c1)c1ccc(Cl)cc1`: the GI50 is above 100 µM in test [1]; 0.246 µM in test [2]; 51 µM in test [3]; above 100 µM in test [4]; 15.4 µM in test [5]; 52.1 µM in [6]. Besides, the GI50 was 79.2 µM in [7], above 100 µM in test [8] and 50.2 µM in test [9]. Besides, the TGI was above 100 µM in test [1]; 9.14 µM in test [2]; above 100 µM in test [3]; above 100 µM in test [4]; 41.9 µM in test [5]; above 100 µM in [6]. Besides, the TGI in test [7], in test [8] and in test [9] was above 100 µM each time.
On to `CCOc1nccc2c1nc(-c1nonc1N)n2CC`, for which the GI50 is 24.5 µM in test [1]; above 25 µM in test [2]; above 25 µM in test [3]; above 25 µM in test [4]; above 25 µM in test [5]; above 25 µM in test [6]. Moreover, the GI50 is above 25 µM in test [7], above 25 µM in test [8] and above 18.4 µM in [9]. In addition, the concentration for total growth inhibition (TGI) in test [1], in [2], in test [3], in test [4], in test [5] and in [6] was above 25 µM in each case. For the same compound, the TGI in [7], in test [8] and in test [9] was above 25 µM each time.
On to `COc1cc(F)c(/C=C/c2cc(/C=C/c3cc(OC)c(OC)cc3F)n(-c3cc(F)cc(F)c3)n2)cc1OC`, for which the GI50 in test [1] was 14.5 µM; in test [2] it was 4.73 µM; in [3] it was 2.03 µM; in [4], 2.96 µM; in test [6], 2.66 µM; in [7], 2.84 µM. For the same compound, the GI50 in test [8] was 3.63 µM; in test [9] it was 14.1 µM. The TGI in test [1] turned out to be 28.8 µM; in test [2] it was 21.1 µM; in test [3], 4.63 µM; in test [4], 10.3 µM; in [6] it was 8.17 µM; in test [7], 9.38 µM. Also, the total growth inhibition concentration (TGI) in test [8] amounted to 28.3 µM; in test [9] it was 34.4 µM.
With `C=C(CNC(=O)c1ccccc1)c1ccc(C(=O)Nc2ccccc2N)cc1`, the GI50 is 1.37 µM in test [1]; 19.5 µM in test [2]; 6.88 µM in [3]; 2.22 µM in [4]; 5.61 µM in test [5]; 2.95 µM in test [6]. Further, the GI50 in test [7] is 2.67 µM; in test [8], 2.12 µM; in [9] it was 2.78 µM. Further, the TGI in test [1] is 7.58 µM; in test [2], above 100 µM; in test [3] it was above 100 µM; in [4] it was above 100 µM; in [5], above 100 µM; in [6], above 100 µM. The TGI in test [7] is 14.9 µM; in [8], 13.6 µM; in test [9], above 100 µM.
On to `Cc1cnccc1N=Nc1ccc(N(C)C)cc1`, for which the concentration for total growth inhibition (TGI) in test [1] was 94.1 µM; in [2] it was 99.6 µM; in [3], 41.2 µM; in test [4] it was above 100 µM; in test [5], 60.1 µM; in test [6], 97.3 µM. Further, the TGI was 29.5 µM in test [7], 50.9 µM in test [8] and above 100 µM in test [9].
As for `CN(C)CCCCn1ccc2c1C(=O)c1c(c(O)c3ccccc3c1O)C2=O`, the GI50 in test [2] was 18.6 µM; in [3] it was 2.01 µM; in test [4], 12.9 µM; in [5], 11.5 µM; in test [6] it was 10 µM; in [10], 4.36 µM. Moreover, the GI50 is 0.501 µM in test [8] and 33 µM in [9]. Besides, the TGI in [2] is above 100 µM; in [3], 3.71 µM; in test [4], 25.6 µM; in test [5] it was 25.6 µM; in [6] it was 23.4 µM; in [10], 23.6 µM. In addition, the TGI was 7.73 µM in [8] and above 100 µM in test [9].
In the case of `Clc1cc(-c2ccccc2)nc2ccccc12`, the TGI is 94.3 µM in [1]; above 100 µM in [2]; 95.4 µM in [3]; above 100 µM in test [4]; above 100 µM in test [5]; 84.2 µM in test [6]. In addition, the TGI was 33 µM in test [7], 71.6 µM in [8] and above 100 µM in test [9].
